In ChEMBL document CHEMBL1152087, “Inhibition of mevalonate 5-pyrophosphate decarboxylase by a proline-containing transition state analog” (Bioorg Med Chem Lett, 1996):

Key:
[1] = target: T1, Diphosphomevalonate decarboxylase (Homo sapiens, UniProt P53602); assay: Compound was evaluated for its inhibitory activity against Mevalonate 5-pyrophosphate decarboxylase
T1 sequence (P53602 whole entry): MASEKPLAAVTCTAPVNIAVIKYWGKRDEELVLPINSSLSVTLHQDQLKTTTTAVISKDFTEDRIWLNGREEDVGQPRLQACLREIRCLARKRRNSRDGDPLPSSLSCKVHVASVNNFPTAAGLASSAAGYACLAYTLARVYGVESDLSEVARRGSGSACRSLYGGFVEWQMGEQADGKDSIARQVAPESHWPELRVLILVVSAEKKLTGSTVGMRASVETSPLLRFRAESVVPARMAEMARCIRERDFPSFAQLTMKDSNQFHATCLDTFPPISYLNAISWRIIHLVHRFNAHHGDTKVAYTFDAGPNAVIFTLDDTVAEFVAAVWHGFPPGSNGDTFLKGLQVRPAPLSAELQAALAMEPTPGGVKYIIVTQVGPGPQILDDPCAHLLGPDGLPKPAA

[2] = target: T1, Diphosphomevalonate decarboxylase; assay: Compound was evaluated for its inhibitory activity against MevPP decarboxylase

Row | Structure (SMILES) | IC50 [1] [nM] | IC50 [2] [nM]
1 | O=C(O)CSCCOP(=O)(O)OP(=O)(O)O | 150 | –
2 | CN(CC(=O)O)C(=O)COP(=O)(O)OP(=O)(O)O | – | 300
